Test results published in patent US9018236B2, “Cyclodextrin-based microemulsions, and dermatological uses thereof” (Precision Dermatology, Inc., priority 2012, dated 2015).

Experiments:
[1] = Solubility/dispersibility of retinol in the Labrasol-HPGCD-water microemulsion system; type: physicochemical; settings: final retinol concentration 1.2%; 15% Labrasol, 5% HPGCD in water
Excerpt: Any two components (examples: Labrasol®-water, HPXCD-water, or Labrasol®-HPXCD) were mixed (in different ratios) in different scintillation vials and then the third component was titrated to each vial until a clear-to-turbid or turbid-to-clear transition occurred (in simple situations). Finally wt % percentages data for each component (Labrasol®, water, and cyclodextrin) were plotted to construct the ternary phase diagram.
Cyclodextrin used: hydroxypropyl-X-cyclodextrin (X=alpha, beta, or gamma).
Drug can be dissolved in the individual components or any of the two-component combination systems, followed by microemulsion formulation. Alternatively Drug can be directly added to the previously prepared microemulsion phase followed by shaking until a clear solution is achieved (when the achievable drug concentration is known previously).

[2] = cited from earlier work

miscibility in Labrasol-HPGCD-water microemulsion system [1]: complete miscibility
Structure (SMILES): CC1=C(/C=C/C(C)=C/C=C/C(C)=C/CO)C(C)(C)CCC1 [Retinol]
miscibility in water [2]: immiscible
